How the values were obtained:
STAT5b(136–703) [1] = target: T1, STAT5b(136–703) (Homo sapiens, UniProt P51692); experiment: Multiplexed Alpha assay, STAT5b-SH2 binding (AlphaScreen); settings: multiplexed binding assay; mean and SEM, three independent experiments; read-out: IC50 STAT5b-SH2 binding (STAT5b)
T1 construct: 136 to 703 of human STAT5b; 6×His-tag (N); made in house; host or cells: E. coli BL-21 Star (DE3) pLysS co-transformed with pBirAcm
T1 sequence (P51692 136-703): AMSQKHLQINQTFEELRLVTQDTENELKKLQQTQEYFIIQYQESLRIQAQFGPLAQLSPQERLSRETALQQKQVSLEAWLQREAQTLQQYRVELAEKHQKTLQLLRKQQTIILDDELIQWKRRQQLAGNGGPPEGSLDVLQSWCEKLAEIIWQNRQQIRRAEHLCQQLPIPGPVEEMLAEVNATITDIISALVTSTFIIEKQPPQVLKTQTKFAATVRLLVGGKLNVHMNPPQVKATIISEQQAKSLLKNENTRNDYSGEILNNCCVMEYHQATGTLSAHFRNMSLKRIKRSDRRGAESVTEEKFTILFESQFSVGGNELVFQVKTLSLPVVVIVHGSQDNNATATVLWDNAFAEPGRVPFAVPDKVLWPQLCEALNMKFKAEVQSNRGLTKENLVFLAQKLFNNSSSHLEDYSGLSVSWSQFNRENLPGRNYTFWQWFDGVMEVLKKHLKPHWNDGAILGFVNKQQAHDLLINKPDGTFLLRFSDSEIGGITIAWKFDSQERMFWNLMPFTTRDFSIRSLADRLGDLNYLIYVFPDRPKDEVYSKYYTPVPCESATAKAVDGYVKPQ
Experimental: (§1) Both AlphaLISA and AlphaScreen are bead-based nonradioactive binding assay systems for detecting biomolecular interactions in a microplate format. The binding of the biological partners brings the donor and acceptor beads into close proximity, and AlphaLISA produces a specific signal around 615 nm and AlphaScreen emits a broad signal between 520 and 620 nm. The assays were performed in a final reaction volume of 25 µL of the assay buffer, which contained 10 mM HEPES-NaOH (pH 7.4), 50 mM NaCl, 1 mM EDTA (pH 8.0), 0.1% (w/v) NP-40, and 10 ng/µL (w/v) BSA in a 96-well microplate at 25°C. The labeled phosphotyrosyl (pTyr, pY) peptide probes were DIG-GpYLPQTV and FITC-GpYLVLDKW for STAT3 and STAT5b, respectively. In the single assay for STAT3 binding, 100 nM STAT3(136–705) protein was incubated with a test compound dissolved in DMSO for 30 min, and 1.0 nM DIG-GpYLPQTV was added and the mixture was incubated for 90 min. Streptavidin-coated donor beads (0.25 µg/well) and anti-DIG AlphaLISA acceptor beads (0.25 µg/well) were added and incubated for 90 min before the signals were measured with EnVison Xcite (PerkinElmer Life Sciences). In the single assay for STAT5b binding, 20 nM STAT5b(136–703) was incubated with a test compound for 30 min, and 1.0 nM FITC-GpYLVLDKW was added and incubated for 90 min. Streptavidin-coated donor beads (0.25 µg/well) and anti-FITC AlphaScreen acceptor beads (0.25 µg/well) were added and incubated for 90 min before the signals were measured with EnVison Xcite. In the multiplexed assay, 100 nM STAT3(136–705) and 20 nM STAT5b(136–703) were incubated with a test compound for 30 min, and 1.0 nM DIG-GpYLPQTV and 1.0 nM FITC-GpYLVLDKW were added and incubated for 90 min. Streptavidin-coated donor beads (0.50 µg/well), anti-DIG AlphaLISA (0.25 µg/well), and anti-FITC AlphaScreen acceptor beads (0.25 µg/well) were added and incubated for 90 min before the signals were measured with EnVison Xcite. AlphaLISA and AlphaScreen signals for measuring STAT3- and STAT5b-SH2 binding, respectively, can be separately measured by using a dysprosium 572 nm and a europium 615 nm narrow bandwidth filter. In inhibitory assays, these signals for the bound state and the free state were represented as 0% and 100% inhibition, respectively. The bound state was measured by incubating the labeled peptide and the protein without test compounds. The free state was measured by incubating the same mixture with an additional 10 µM non-labeled peptide contained phosphorylated tyrosine, which competitively binds to its corresponding protein. The IC50 value was calculated by Graph pad prism 4.0. The mean and the standard error (SEM) of IC50 values were determined from three independent experiments. The Z’ value was calculated using the equation Z’ = 1–(3×SD_bound +3×SD_free)/(Signal_bound – Signal_free). STAT1 and Grb2 binding assays were performed as described in previous report. In the assays for selectivity of Compound 1, 100 pM biotinylated DIG or 100 pM biotinylated FITC was incubated with 10 µM or 30 µM Compound 1 for 30 min. Streptavidin-coated donor beads (0.25 µg/well) and anti-DIG AlphaLISA acceptor beads (0.25 µg/well) or anti-FITC AlphaScreen acceptor beads (0.25 µg/well) were added and incubated for 90 min before the signals were measured with EnVison Xcite.

STAT5b(136–703) [2] = target: T1, STAT5b(136–703); experiment: Single STAT5b-SH2 binding assay (AlphaScreen); settings: non-multiplexed single assay
Experimental: as §1

Grb2-SH2 = target: T2, Grb2-SH2 (Homo sapiens, UniProt P62993); experiment: Grb2-SH2 binding AlphaScreen assay; settings: AlphaScreen assay (Figure S8A)
T2 construct: made in house
T2 sequence (P62993 whole entry): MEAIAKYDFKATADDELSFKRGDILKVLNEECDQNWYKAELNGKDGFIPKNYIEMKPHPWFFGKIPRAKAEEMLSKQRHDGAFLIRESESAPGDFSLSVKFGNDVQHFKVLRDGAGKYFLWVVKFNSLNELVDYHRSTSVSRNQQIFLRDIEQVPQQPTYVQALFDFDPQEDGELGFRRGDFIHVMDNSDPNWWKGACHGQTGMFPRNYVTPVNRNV
Experimental: Both AlphaLISA and AlphaScreen are bead-based nonradioactive binding assay systems for detecting biomolecular interactions in a microplate format. The binding of the biological partners brings the donor and acceptor beads into close proximity, and AlphaLISA produces a specific signal around 615 nm and AlphaScreen emits a broad signal between 520 and 620 nm. The assays were performed in a final reaction volume of 25 µL of the assay buffer, which contained 10 mM HEPES-NaOH (pH 7.4), 50 mM NaCl, 1 mM EDTA (pH 8.0), 0.1% (w/v) NP-40, and 10 ng/µL (w/v) BSA in a 96-well microplate at 25°C. […] Streptavidin-coated donor beads (0.25 µg/well) and anti-DIG AlphaLISA acceptor beads (0.25 µg/well) were added and incubated for 90 min before the signals were measured with EnVison Xcite (PerkinElmer Life Sciences). […] Streptavidin-coated donor beads (0.25 µg/well) and anti-FITC AlphaScreen acceptor beads (0.25 µg/well) were added and incubated for 90 min before the signals were measured with EnVison Xcite. […] Streptavidin-coated donor beads (0.50 µg/well), anti-DIG AlphaLISA (0.25 µg/well), and anti-FITC AlphaScreen acceptor beads (0.25 µg/well) were added and incubated for 90 min before the signals were measured with EnVison Xcite. […] The bound state was measured by incubating the labeled peptide and the protein without test compounds. […] The IC50 value was calculated by Graph pad prism 4.0. […]

[3] = test system: STAT3 nuclear translocation in HeLa cells; experiment: STAT3 nuclear translocation assay in oncostatin M-stimulated HeLa cells; format: cell-based; settings: for Fluorescent intensity of STAT3 in the nuclei, of the vehicle treatment: 1 h pretreatment, oncostatin M 30 ng/mL 10 min, HeLa
Experimental: The Cellomics STAT3 Activation Kit (Thermo Scientific) was used for the nuclear translocation assay. HeLa cells were incubated in a 96-well microplate for 24 h. Cells were pretreated with the test compounds for 1 hour, and 30 ng/mL (w/v) of oncostatin M was applied and the mixture was incubated for 10 min. The subsequent procedures were performed according to the manufacturer’s instructions. The cells were scanned with an ArrayScan VTI reader (Thermo Scientific), and analyzed with the Cytoplasm to Nucleus Translocation Application. The mean fluorescent values in the nuclei were calculated. The signals for vehicle treatment and no treatment (without oncostatin M) were represented as 100% and 0%, respectively, and the relative signal intensity was also calculated.

Q: With O=C1C=CC(=NC2=C(Cl)C(=O)c3ccccc3C2=O)C=C1 [Compound 1] as the compound, how does the IC50 (STAT5b(136–703) [1]) read?
A: 11 ± 0.27 µM

Q: What about the IC50 (STAT5b(136–703) [2]) of the same compound?
A: 10 µM

Q: What about the “Inhibition of Grb2-SH2 binding” value (Grb2-SH2) of the same compound?
A: inhibited neither

Q: What about the “Fluorescent intensity of STAT3 in the nuclei, of the vehicle treatment” value ([3]; 60 µM) of the same compound?
A: 51%

Q: What about the “Fluorescent intensity of STAT3 in the nuclei, of the vehicle treatment” value ([3]; 100 µM) of the same compound?
A: 31%

Q: What about the “Effect on STAT3 nuclear translocation” value ([3]; HeLa cells, pretreatment before oncostatin M (Figure 6, Figure S9)) of the same compound?
A: reduced the STAT3 nuclear translocation in a dose-dependent manner
